From ChEMBL document CHEMBL3826972, “Spirostanol saponins from Tacca vietnamensis and their anti-inflammatory activity” (Bioorg Med Chem Lett, 2016)
pIC50: −log10 of the molar value. Active and inactive are the calls of the source. The rule behind the calls is not given here.

Tests used:
[1] = Cytotoxicity against mouse BV2 cells assessed as cell viability at 80 uM; assay type: cell-based, BV-2; conditions: read-out: Activity
[2] = Cytotoxicity against mouse RAW264.7 cells assessed as cell viability at 80 uM; assay type: cell-based; conditions: read-out: Activity
[3] = tested on: RAW264.7; assay: Inhibition of LPS-induced NO production in mouse RAW264.7 cells at 80 uM by Griess assay; assay type: functional
[4] = tested on: RAW264.7; assay: Inhibition of LPS-induced NO production in mouse RAW264.7 cells by Griess assay; assay type: functional, cell-based
[5] = tested on: BV-2; assay: Inhibition of LPS-induced NO production in mouse BV2 cells at 80 uM by Griess assay; assay type: functional
[6] = tested on: BV-2; assay: Inhibition of LPS-induced NO production in mouse BV2 cells by Griess assay; assay type: functional, cell-based

Structure (SMILES) | viability at 80 µM [1] | viability at 80 µM [2] | inhibition at 80 µM [3] | pIC50 [4] | inhibition at 80 µM [5] | pIC50 [6] | inhibition [3] | inhibition [5]
C[C@H]1CC[C@@]2(OC1)O[C@@H]1C[C@@H]3[C@H]4CC=C5C[C@H](O[C@H]6O[C@@H](CO)[C@H](O)[C@@H](O[C@H]7O[C@H](C)[C@@H](O[C@@H]8O[C@H](CO)[C@@H](O)[C@H](O)[C@H]8O)[C@H](O)[C@@H]7O)[C@@H]6O[C@H]6O[C@H](C)[C@@H](O)[C@H](O)[C@@H]6O)CC[C@@]5(C)[C@@H]4CC[C@@]3(C)[C@@H]1[C@H]2C | < 50% | < 50% |  |  |  |  |  | 
C[C@@H]1O[C@@H](O[C@H]2[C@H](O[C@H]3CC[C@@]4(C)C(=CC[C@H]5[C@@H]6C[C@@H]7OC8(OC[C@](C)(O)C[C@@H]8O)[C@@H](C)[C@@H]7[C@@]6(C)CC[C@@H]54)C3)O[C@H](CO)[C@@H](O)[C@@H]2O[C@@H]2O[C@@H](C)[C@H](O)[C@@H](O)[C@H]2O)[C@H](O)[C@H](O)[C@H]1O (single isomer, unassigned) |  |  | < 50% | < 4.10 | < 50% | < 4.10 |  | 
C[C@@H]1COC2(C[C@@H]1O)O[C@H]1C[C@H]3[C@@H]4CC=C5C[C@@H](O[C@@H]6O[C@H](CO)[C@@H](O)[C@H](O[C@@H]7O[C@@H](C)[C@H](O)[C@@H](O)[C@H]7O)[C@H]6O[C@@H]6O[C@@H](C)[C@H](O)[C@@H](O)[C@H]6O)CC[C@]5(C)[C@H]4CC[C@]3(C)[C@H]1[C@@H]2C (single isomer, unassigned) |  |  | < 50% | < 4.10 | < 50% | < 4.10 |  | 
C[C@@H]1CO[C@]2(O[C@H]3C[C@@H]4[C@@H]5CC=C6C[C@@H](O[C@@H]7O[C@H](CO)[C@@H](O)[C@H](O[C@@H]8O[C@@H](C)[C@H](O)[C@@H](O)[C@H]8O)[C@H]7O[C@@H]7O[C@@H](C)[C@H](O)[C@@H](O)[C@H]7O)CC[C@]6(C)[C@H]5CC[C@]4(C)[C@H]3[C@@H]2C)[C@@H](O)[C@@H]1O (stereo in doubt) |  |  |  | 4.22 |  | 4.28 | Active | Active
C[C@@H]1O[C@@H](O[C@H]2[C@H](O[C@@H]3CC[C@]4(C)C(=CC[C@@H]5[C@H]6C[C@H]7O[C@@]8(OC[C@](C)(O)C[C@H]8O)[C@H](C)[C@H]7[C@]6(C)CC[C@H]54)C3)O[C@H](CO)[C@@H](O)[C@@H]2O[C@@H]2O[C@@H](C)[C@H](O[C@@H]3O[C@H](CO)[C@@H](O)[C@H](O)[C@H]3O)[C@@H](O)[C@H]2O)[C@H](O)[C@H](O)[C@H]1O (stereo in doubt) |  |  | < 50% | < 4.10 | < 50% | < 4.10 |  | 
C[C@@H]1CO[C@@]2(O[C@@H]3C[C@@H]4[C@H]5CC=C6C[C@H](O[C@@H]7O[C@H](CO)[C@@H](O)[C@H](O[C@@H]8O[C@@H](C)[C@H](O[C@@H]9O[C@H](CO)[C@@H](O)[C@H](O)[C@H]9O)[C@@H](O)[C@H]8O)[C@H]7O[C@@H]7O[C@@H](C)[C@H](O)[C@@H](O)[C@H]7O)CC[C@@]6(C)[C@@H]5CC[C@@]4(C)[C@@H]3[C@H]2C)[C@H](O)C1 (stereo in doubt) |  |  |  | 4.43 |  | 4.36 | Active | Active
C[C@@H]1CO[C@]2(C[C@@H]1O)O[C@@H]1C[C@@H]3[C@H]4CC=C5C[C@H](O[C@@H]6O[C@H](CO)[C@@H](O)[C@H](O[C@@H]7O[C@@H](C)[C@H](O[C@@H]8O[C@H](CO)[C@@H](O)[C@H](O)[C@H]8O)[C@@H](O)[C@H]7O)[C@H]6O[C@@H]6O[C@@H](C)[C@H](O)[C@@H](O)[C@H]6O)CC[C@@]5(C)[C@@H]4CC[C@@]3(C)[C@@H]1[C@H]2C (stereo in doubt) |  |  | < 50% | < 4.10 | < 50% | < 4.10 |  | 
C[C@@H]1CO[C@@]2(O[C@@H]3C[C@@H]4[C@H]5CC=C6C[C@H](O[C@@H]7O[C@H](CO)[C@@H](O)[C@H](O[C@@H]8O[C@@H](C)[C@H](O[C@@H]9O[C@H](CO)[C@@H](O)[C@H](O)[C@H]9O)[C@@H](O)[C@H]8O)[C@H]7O[C@@H]7O[C@@H](C)[C@H](O)[C@@H](O)[C@H]7O)CC[C@@]6(C)[C@@H]5CC[C@@]4(C)[C@@H]3[C@H]2C)[C@H](O)[C@@H]1O (stereo in doubt) |  |  |  | 4.24 |  | 4.33 | Active | Active
O=C(/C=C/c1ccc(O)c(O)c1)c1ccc(O)cc1O [BUTEIN] |  |  |  | 5.28 |  | 5.37 |  | 
